{"source": "patent US20110104167A1", "about": "“Compositions and Methods for Diagnosing and Treating Insulin Resistance” (YEDA RESEARCH AND DEVELOPMENT CO. LTD., priority 2004, published 2011)", "key": {"IRS-1": {"system": "IRS-1", "assay": "Effect of proteosome inhibitor on IRS-1 protein content and Tyr phosphorylation", "type": "cell-based", "settings": "not shown"}, "Fao cells": {"system": "Fao cells", "assay": "Effect of inducers of insulin resistance on insulin-stimulated Tyr phosphorylation of IRS-1 in Fao cells", "type": "cell-based, rat", "protocol": "FIGS. 5a-c show the effects of TPA and anisomycin on insulin-induced Tyr phosphorylation of IRS-1^7A in Fao cells. Fao cells were infected with Ad-Myc-IRS-1^WT or Ad-Myc-IRS-1^7A at 7×10^7 PFU/ml. Following 48 hours the cells were deprived of serum for 16 h, and were then treated for 60 min with 200 nM TPA (FIG. 5a); 50 ng/ml of anisomycin (FIG. 5b) or 1 μg/ml of anisomycin (FIG. 5c). This was followed by treatment with 100 nM insulin for 2 min (FIG. 5a) or for the indicated times (FIGS. 5b-c). Cell extracts were prepared, and samples (1 mg) were subjected to immunoprecipitation (IP) with anti-Myc antibodies (FIG. 5a). Immunocomplexes were resolved on 7.5 SDS-PAGE and were immunoblotted with the indicated antibodies. Alternatively, total cell extracts (FIGS. 5b-c) were resolved on 7.5% SDS-PAGE and immunoblotted with the indicated antibodies. Results of a representative of four experiments are presented. The results of two independent experiments done in duplicates were quantified (FIG. 5a, right panel).\nFIGS. 6a-b show the dose dependent effect of Palmitic acid on Insulin-induced Tyr phosphorylation of IRS-1 mutants in Fao cells. Fao cells were infected with Ad-Myc-IRS-1^WT or Ad-Myc-IRS-1^7A at 7×10^7 PFU/ml. Following 24 hours the cells were deprived of serum for 12 h, and were then further incubated for 12 h with or without the indicated concentrations of palmitic acid in serum free medium prior to being stimulated with 100 nM insulin for the indicated times. Cell extracts (100 μg) were resolved on 7.5% SDS-PAGE and immunoblotted with anti-PY and anti-Myc antibodies. The results of two independent experiments done in duplicates were quantified.\nFIGS. 11a-c show the effects of TPA and anisomycin on insulin-stimulated Tyr phosphorylation of IRS-1^WT, IRS-1^7A and IRS-1^408A. Fao cells were infected with Adeno-myc-IRS-1 wild type (WT); the 7A mutant; or the S408A mutant at a titer of 4-6×10^7 PFU/ml. Following 48 hours the cells were deprived of serum for 16 h, and were then treated for 60 min with 200 nM TPA (FIG. 11a), or 50 ng/ml anisomycin (FIG. 11b), followed by treatment with 100 nM insulin for the indicated times. Cell extracts were prepared, samples (1 mg) were subjected to immunoprecipitation (IP) with anti-Myc antibodies. Immunocomplexes were resolved on 7.5% SDS-PAGE and immunoblotted with anti-PY or anti IRS-1 antibodies.\nInfection of Fao cells with adenovirus—Fao cells were grown in RPMI medium containing 10% FCS. At 70% confluence cells were infected with adenoviruses harboring the gene of interest at a titer of 7 10^7 PFU/ml. After incubation for 2 h hours at 37° C., the virus-containing medium was diluted 1:5 in fresh RPMI medium. After 24 h the medium was replaced with a fresh RPMI medium containing 10% FCS. […]"}, "CHO-T cells": {"system": "CHO-T cells", "assay": "Phosphorylation (mobility shift) of truncated IRS-1 PH/PTB constructs in CHO-T cells", "type": "cell-based, Chinese Hamster", "settings": "25 nM calyculin A 60 min", "protocol": "FIGS. 7a-c show In vivo phosphorylation of PH/PTB-L in response to insulin. CHO-T cells were transiently transfected with pcDNA3-Myc-PH/PTB (1-1290 nt) or with an insert-free plasmid (control). Twenty-four hours post-transfection, the cells were deprived of serum for 16 h and were then treated with insulin for the indicated time periods. Cell extracts (100 μg) were resolved on 10% SDS-PAGE and immunoblotted with anti-pY or anti-Myc antibodies (FIG. 7a). In parallel, samples (100 μg, 40 μl) were incubated with 3 units (U) of calf intestine phosphatase (CIP) at 37° C. for 1 h. The samples were resolved on 10% SDS-PAGE and immunoblotted with anti-Myc antibodies (FIG. 7b). The results are of a representative of two experiments. FIG. 7c—CHO^PH/PTB-L cells were starved in serum-free F12 medium for 16 h. The cells were treated for 30 min with the indicated inhibitors prior to being treated with 100 nM insulin for 30 min. Cell extracts were prepared, samples were resolved on 10% SDS-PAGE and were immunoblotted with anti-Myc antibodies. Results are of a representative of three experiments.\nFIGS. 8a-b show the effects of insulin on Serine phosphorylation of Myc-PH/PTB-L^7A CHO-T cells were transiently transfected with constructs encoding Myc-PH/PTB-L (1-1290 nt), either wild type (WT) or the 7A mutant (FIG. 8a). Alternatively, the cells were transfected or with the constructs encoding Myc-PH/PTB-L (1-1290 nt; 1-430 aa) or Myc-PH/PTB-S (1-1095 nt; 1-365 aa, FIG. 8b). Following 24 hours in culture, the cells were incubated in serum-free F12 medium for 16 ch prior to being treated with insulin for the indicated times. Cell extracts were resolved on 10% SDS-PAGE and immunoblotted with anti-Myc antibodies. Results are of a representative of three experiments.\nFIGS. 9a-b show the effects of insulin and calyculin A on Ser phosphorylation of PH/PTB-L mutants. FIG. 9a—CHO-T cells were transiently transfected with constructs expressing either Myc-PH/PTB^WT or the following PH/PTB mutants: S336A, S407A, S408A, S407/8A and S3A (S336/407/408A). Following 24 hours the cells were deprived of serum for 16 h, and were treated with insulin for the indicated times. Cell extracts were resolved on 10% SDS-PAGE and immunoblotted with anti-Myc antibodies. The results are of a representative of two-three experiments. FIG. 9b—CHO-T cells were transiently transfected with pcDNA3-myc-PH/PTB^WT or pcDNA3-myc-PH/PTB^S408A. Following 24 hours the cells were starved for 16 h and were then treated either with 100 nM insulin for 30 min or with 25 nM calyculin A for 60 min. Cell extracts were resolved on 10% SDS-PAGE and were immunoblotted with anti-Myc antibodies. Results are of a representative of two experiments.\nPlasmids construction—i. Myc-tagged-IRS-1 The cDNA, encoding for the mouse IRS-1 in the pCNA-3 expression plasmid (35) was digested with Hind III and BspE-1. This deleted a 9 by fragment from the 5′-IRS-1 cDNA that was replaced by a double stranded synthetic oligonucleotide encoding the Myc tag and the missing amino-acids of IRS-1 (bold) […] (SEQ ID NO. 9). ii. Myc-tagged truncated IRS-1 (aa 1-430, PH/PTB-L) Myc-tagged mouse IRS-1 cDNA (N-terminus, 1-1290 nt), encoding for the first 430 aa of IRS-1, was PCR-amplified with the following primers. 5′-CAGGATCCGCATATGGAACAAAAGCTC-3′ (sense) (SEQ ID NO. 10); 5′-GAGAATTCATCAGGGACTAGAACCATA-3′ (anti-sense) (SEQ ID NO. 11), using as a template the pcDNA3-Myc-IRS-1 plasmid. The PCR product was ligated into a pGEM-T. The insert was excised from pGEM-T with BamH I and EcoR I (italic), and then was ligated into pcDNA3 at the same restriction sites to generate pcDNA3-Myc-IRS-1^PH/PTB-L. iii. Myc-tagged truncated IRS-1 (aa 1-365, PH/PTB-S) Myc-tagged mouse IRS-1 cDNA (N-terminus, 1-1095 nt), encoding for the first 365 aa of IRS-1, was PCR-amplified with the following primers: 5′ […]-3′ (sense) (SEQ ID NO. 12); 5′ […] 3′ (anti sense) (SEQ ID NO. 13) using as a template the pcDNA3-Myc-IRS-1. […]"}, "S408 of IRS-1": {"system": "S408 of IRS-1", "assay": "In vivo phosphorylation of S408 of IRS-1 in cultured Fao cells", "type": "cell-based, rat", "settings": "Fao cells infected with IRS-1^WT", "protocol": "Following 48 hours, the cells were starved for 16 hours. The medium was removed and the cells were incubated with or without 100 nM insulin for the indicated times (FIG. 10a). Alternatively, the cells were incubated with insulin, SMase or calyculin A as indicated (FIG. 10b). Cytosolic extracts (100 μg) were resolved on 7.5% SDS-PAGE and immunoblotted with anti-phospho-Ser 408 antibody or anti-PY antibodies as indicated.\nInfection of Fao cells with adenovirus—Fao cells were grown in RPMI medium containing 10% FCS. At 70% confluence cells were infected with adenoviruses harboring the gene of interest at a titer of 7 10^7 PFU/ml. After incubation for 2 h hours at 37° C., the virus-containing medium was diluted 1:5 in fresh RPMI medium. After 24 h the medium was replaced with a fresh RPMI medium containing 10% FCS. 48 h post-infection the Fao cells were starved in serum-free RPMI for 16 h and were then subjected to the indicated treatments as described below.\nTreatment of cells and preparation of extracts—Virally-infected Fao cells were grown as described above. Nave Rat hepatoma (Fao) cells or CHO cells were grown in RPMI medium supplemented with 10% fetal calf serum as described (22). At 70-80% confluence, cells were deprived of serum for 16 h prior to each experiment, and were then incubated with inducers of insulin resistance and/or insulin. […]"}, "[1]": {"target": "insulin receptor (IR) of Fao rat hepatoma cells (rat (Fao rat hepatoma cells)) (UniProt P15127)", "sequence (P15127 27-1383 limits assumed)": "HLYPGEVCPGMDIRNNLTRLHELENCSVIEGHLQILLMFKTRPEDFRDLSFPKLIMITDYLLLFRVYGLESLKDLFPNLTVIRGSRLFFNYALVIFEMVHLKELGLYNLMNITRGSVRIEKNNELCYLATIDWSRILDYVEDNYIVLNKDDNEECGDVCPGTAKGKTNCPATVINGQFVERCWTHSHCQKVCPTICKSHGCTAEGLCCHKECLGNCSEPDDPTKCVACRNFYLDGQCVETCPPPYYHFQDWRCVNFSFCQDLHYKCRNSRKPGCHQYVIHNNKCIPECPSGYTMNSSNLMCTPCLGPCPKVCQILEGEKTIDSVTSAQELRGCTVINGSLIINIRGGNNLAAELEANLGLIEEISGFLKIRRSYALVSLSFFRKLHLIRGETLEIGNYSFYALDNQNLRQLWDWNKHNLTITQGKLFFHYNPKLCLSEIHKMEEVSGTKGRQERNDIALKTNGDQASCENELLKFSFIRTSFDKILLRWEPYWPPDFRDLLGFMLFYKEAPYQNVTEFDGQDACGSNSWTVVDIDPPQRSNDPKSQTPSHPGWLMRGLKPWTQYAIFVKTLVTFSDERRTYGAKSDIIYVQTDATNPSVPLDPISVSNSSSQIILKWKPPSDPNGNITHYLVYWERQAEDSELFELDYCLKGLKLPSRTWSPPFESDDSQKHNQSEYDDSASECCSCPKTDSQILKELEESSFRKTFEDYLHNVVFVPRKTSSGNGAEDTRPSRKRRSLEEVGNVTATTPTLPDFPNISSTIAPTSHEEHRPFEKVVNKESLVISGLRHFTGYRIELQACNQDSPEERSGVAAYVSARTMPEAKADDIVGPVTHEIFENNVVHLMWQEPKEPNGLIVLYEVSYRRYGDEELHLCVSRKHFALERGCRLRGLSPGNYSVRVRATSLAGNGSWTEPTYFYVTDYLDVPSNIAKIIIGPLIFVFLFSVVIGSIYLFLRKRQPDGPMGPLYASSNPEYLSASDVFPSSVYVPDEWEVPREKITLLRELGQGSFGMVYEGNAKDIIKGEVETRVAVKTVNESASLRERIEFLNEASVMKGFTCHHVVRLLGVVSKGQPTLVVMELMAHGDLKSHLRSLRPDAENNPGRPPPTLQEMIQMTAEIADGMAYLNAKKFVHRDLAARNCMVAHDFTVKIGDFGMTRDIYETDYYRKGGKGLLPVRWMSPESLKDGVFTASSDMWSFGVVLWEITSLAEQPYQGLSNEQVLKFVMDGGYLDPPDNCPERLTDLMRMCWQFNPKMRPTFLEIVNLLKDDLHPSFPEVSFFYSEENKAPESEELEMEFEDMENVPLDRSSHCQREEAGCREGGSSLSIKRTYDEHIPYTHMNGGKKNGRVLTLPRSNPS", "assay": "cell-based or functional assay"}}, "note": "Where a SMILES comes first, the peptide text is derived from it. The star is where a group is joined. Cbz = O=C(OCc1ccccc1)*", "data": [{"compound": "CC(C)C[C@@H](C=O)NC(=O)[C@H](CC(C)C)NC(=O)[C@H](CC(C)C)NC(=O)OCc1ccccc1", "note": "[MG-132] (Cbz-Leu-Leu-Leu-aldehyde)", "values": [{"measurement": "effect on protein content and Tyr phosphorylation patterns of IRS-1^7A and IRS-1^WT", "setting": "IRS-1", "result": "did not alter significantly"}]}, {"compound": "CCCCCCCCCCCCCCCC(=O)O", "note": "[FFA, Palmitic acid]", "values": [{"measurement": "reduction in insulin-stimulated Tyr phosphorylation of IRS-1^WT by FFA pre-treatment", "setting": "Fao cells; FFA 0.5-0.75 mM", "result": "~35", "unit": "%"}]}, {"compound": "CCCCCCCCCCCCCC(=O)O[C@@H]1[C@@H](C)[C@@]2(O)[C@@H](C=C(CO)C[C@]3(O)C(=O)C(C)=C[C@@H]23)[C@@H]2C(C)(C)[C@]12OC(C)=O", "note": "[TPA, phorbol 12-myristate 13-acetate]", "values": [{"measurement": "inhibition of insulin-stimulated Tyr phosphorylation of Myc-IRS-1^WT by TPA pretreatment", "setting": "Fao cells; 200 nM TPA 60 min, then 100 nM insulin 2 min", "result": "~40", "unit": "%"}]}, {"compound": "COC[C@@H]([C@H](O)[C@H](O)C(=O)NCC[C@H](C)c1nc(/C=C/C[C@@H]2O[C@]3(C[C@@H](O)[C@@H]2C)O[C@H]([C@H](C[C@H](O)[C@H](C)[C@H](O)[C@H](C)/C=C(C)/C(C)=C/C=C/C(C)=C\\C#N)OC)[C@H](OP(=O)(O)O)C3(C)C)co1)N(C)C", "note": "[Calyculin A]", "values": [{"measurement": "Ser phosphorylation (mobility shift) of Myc-PH/PTB-L^WT", "setting": "CHO-T cells", "result": "triggers Ser phosphorylation"}, {"measurement": "mobility shift when Ser408 was mutated to Ala", "setting": "CHO-T cells", "result": "significantly reduced"}, {"measurement": "in vivo phosphorylation of S408", "setting": "S408 of IRS-1", "result": "induced phosphorylation of S408"}]}, {"compound": "Myc-IRS-1^WT (Myc-tagged wild-type mouse IRS-1 expressed in Fao cells from an adenoviral construct) (from UniProt P35569 4-1233)", "values": [{"measurement": "reduction of Tyr phosphorylation content following prolonged (60 min) insulin treatment", "setting": "[1]", "result": 55, "unit": "%"}]}]}
